Read-outs that look alike come from different tables or passages of the source.
What was measured:
[1] = system: HT-29 cell; assay: Cell proliferation inhibitory activity (Cell-Titer-Glo), HT-29; type: cell-based; conditions: Homo sapiens, HT-29, 72 h, 3 days incubation
Text: (§1) Experimental Embodiment 2: Evaluation of Cell Proliferation Inhibitory Activity
(§2) Experiment objective: To detect cell proliferation inhibitory activity of the tested compounds.
(§3) Experimental principle: The luciferase in the Cell-Titer-Glo reagent produces oxyluciferin using luciferin, oxygen and ATP as reaction substrates, and releases energy in the form of light. Since the reaction of luciferase requires ATP, the total amount of light generated by the reaction is proportional to the total amount of ATP that reflects cell viability.
(§4) Cell lines: MCF-7 cell line […], HT-29 cell line (ATCC-HTB-38), OE21 (ECACC-96062201), NCI-N87 cell line (ATCC-CRL-5822)
(§5) Cell culture medium: (RPMI 1640 culture medium (Invitrogen #1868546; 10% serum Invitrogen #1804958; L-glutamine 1×, Invitrogen #1830863; dual antibiotic Hyclone #J170012))
(§6) Cell Titer-Glo® Luminescent Cell Viability Assay Kit (Promega #G7573)
(§7) The cells were inoculated in a 384- or 96-well plate with a density of 1000 cells per well and 25 μL per well according to the instructions of the cell inoculating plate. The edge wells were not inoculated with cells, and was supplemented with […].
(§8) (i) The mother solution of the compound was 10 mM, and diluted with DMSO to an initial concentration of 4 mM. The compound was added to the compound mother solution, 9 μL per well.
(§9) (ii) The compound was diluted with ECHO liquid-handling workstation. Each well of the cell plate was added with 125 nL compound. Each well of the cell wells in 2nd column and 23rd column was added with 125 nL DMSO, and each of the PBS wells in 1st column and 24th column was added with 125 nL DMSO.
(§10) (iii) Each well of the cell plate was supplemented with 25 μL culture medium, the final volume in each well of the cell plate was 50 μL, […] 3 times dilution, 10 concentrations, each concentration was duplicated in left and right wells, the final DMSO concentration was 0.25%.
(§11) 2.3. After addition of the compound, centrifugation was performed at 1000 rpm for 1 min, and the cell plate was placed in a 37° C., 5% CO2 incubator for 3 days.
(§12) The cell plate was taken out from the incubator and equilibrated at room temperature for 30 minutes. 25 μL Cell-Titer-Glo reagent was added to each well, shaken for one minute to mix thoroughly, centrifuged at 1000 rpm for 1 minute. After 10 minutes, the plate was read on PerkinElmer Envision with a […] reading time was set at 0.2 second.

[2] = system: OE21 cell; assay: Cell proliferation inhibitory activity (Cell-Titer-Glo), OE21; type: cell-based; conditions: OE21, 72 h; 3 days incubation
Text: as §1, §2, §3, §4, §5, §6, §7, §8, §9, §10, §11, §12

[3] = system: N87 cell; assay: Cell proliferation inhibitory activity (Cell-Titer-Glo), N87; type: cell-based; conditions: 72 h; 3 days incubation
Text: as §1, §2, §3, §4, §5, §6, §7, §8, §9, §10, §11, §12

[4] = Pharmacokinetic evaluation in plasma after IV and PO administration; type: in vivo; conditions: female Balb/c mice; for MRT inf: read-out: MRT0-inf; for MRT last: read-out: MRT0-last
Protocol: Experimental Embodiment 3: Pharmacokinetic Evaluation
The test compound was mixed with […] (Cremophor EL), vortexed and sonicated to prepare a 1 mg/mL near-clear solution, which was filtered with a microporous filter membrane for future use. Female Balb/c mice of 18 to 20 grams were selected and the solution of the test compound was administered intravenously at a dose of 1 or 2 mg/kg. The test compound was mixed with an aqueous solution of 1% Tween 80, 9% polyethylene glycol 400, and 90% water, vortexed and sonicated to prepare 1 mg/mL near-clear solution, which was filtered with a microporous filter membrane for future use.
Female Balb/c mice of 18 to 20 grams were selected, and the solution of the test compound was orally administered at a dose of 2 or 10 mg/kg. The whole blood was collected at a certain time, and prepared into plasma. The drug concentration was analyzed by LC-MS/MS, and the pharmacokinetic parameters were calculated using Phoenix WinNonlin software (Pharsight Corporation, USA).

[5] = system: MCF-7 cell; assay: Cell proliferation inhibitory activity (Cell-Titer-Glo), MCF-7; type: cell-based; conditions: Homo sapiens, MCF7, 72 h; 3 days incubation
Text: as §1, §2, §3, §4, §5, §6, §7, §8, §9, §10, §11, §12

[6] = target: T1, mTOR kinase (mTORC1 and mTORC2 kinase complex) (Homo sapiens, UniProt P42345); assay: In vitro evaluation of mTOR kinase inhibitory activity (DiscoverX ligand-bead competition binding, qPCR readout)
T1 construct: purchased DiscoverX; host or cells: HEK-293
Protocol: Experimental Embodiment 1: In Vitro Evaluation of mTOR Kinase Inhibitory Activity This experiment was performed by DiscoverX. All materials and methods were obtained from DiscoverX.
Kinase activity analysis.
1. Labeled mTOR kinase was stably expressed in HEK-293 cells.
2. Streptavidin magnetic beads were treated with biotinylated small molecule ligands at room temperature for 30 minutes to produce affinity resin for kinase analysis;
3. Ligand beads were blocked with excess biotin and washed with buffer (1% bovine serum albumin, […]) to remove unbound ligand and non-specifically bound ligand;
4. The assembly of kinase and ligand and affinity beads, and the binding reaction between the compound and the three were performed in buffer (20% blocking buffer, 0.17x phosphate buffer, 0.05% Tween […]);
5. The test compounds were dissolved in dimethyl sulfoxide;
6. All test compounds were dissolved in DMSO, and then directly diluted […]
7. The solution was placed in a 384-well polypropylene plate, wherein the volume of each well was 0.02 mL;
8. The plate was shaked for an hour at room temperature;
9. The plate was washed with buffer (1× PBS, 0.05% Tween 20);
10. The affinity beads were resuspended in buffer (1× PBS, 0.05% Tween […] non-biotin affinity ligand) and incubated at room temperature for 30 minutes;
11. The kinase concentration in the eluate was deteced by qPCR.

[7] = system: human breast cancer MCF-7 cell subcutaneous xenograft tumor; assay: In vivo pharmacodynamic study, MCF-7 subcutaneous xenograft tumor; parameters: species or system BALB/c nude mouse; conditions: 15 mg/kg
Text: Experimental Embodiment 4: In Vivo Pharmacodynamic Study on BALB/c Nude Mouse Model of Human Breast Cancer MCF-7 Cell Subcutaneous Xenograft Tumor
Experimental objective: To study the efficacy of the test compounds on human breast cancer MCF-7 cell subcutaneous xenograft tumor in BALB/c nude mouse model.
Experimental animals: Female BALB/c nude mice, 6-8 weeks old, weighing 18-22 grams; supplier: Shanghai Xipuer-Bikai Experimental Animal Co., Ltd.
Human breast cancer MCF-7 cells (ECACC, article number: 86012803) were subjected to in vitro monolayer culture under the conditions of EMEM (EBSS)+2 mM […]+1% Non Essential Amino Acids (NEAA) medium containing 10% fetal bovine serum, 100 U/mL penicillin and 100 μg/mL streptomycin, and 37° C., 5% CO2incubator. Conventional digestion treatment was carried out with trypsin-EDTA twice a week for cell passage. When the cell saturation was 80%-90%, and the quantity reached the requirement, the cells were collected, counted and inoculated.
Estrogen tablets (0.18 mg) were inoculated into the left back of each mouse three days before cell inoculation, 0.2 mL (1×10^7) MCF-7 cells (added with matrigel, volume ratio of 1:1) were subcutaneously inoculated into the right back of each mouse. When the average volume of tumor reached 142 mm^3, the mice were divided into groups and began to be administrated.
The test compounds were prepared into clear solutions of 0.75 mg/mL, 1.5 mg/mL and 3 mg/mL. The vehicles were 5% DMSO+30% polyethylene glycol 300+65% water.
The experimental indexes were used for investigating whether the growth of the tumors had been inhibited, delayed or cured. The diameters of the tumors were measured with vernier calipers twice a week. The calculation formula of the tumor volume was: V=0.5a×b^2, wherein a and b represent the long and short diameters of the tumor respectively.
The antitumor efficacy of the compound was evaluated by TGI (%) or relative tumor proliferation rate T/C (%). TGI (%) reflects the inhibition rate of the tumor growth. Calculation of TGI (%): TGI (%)=[1−(average tumor volume at the end of administration in the treatment group−average tumor volume at the beginning of administration in the treatment group)/(average tumor volume at the end of treatment in the vehicle control group−average tumor volume at the beginning of treatment in the vehicle control group)]×[…].
Relative tumor proliferation rate T/C (%): The calculation formula was as follows: T/C %=TRTV/CRTV at the beginning of the treatment (TRTV: treatment group RTV; CRTV: negative control group RTV). The relative tumor volume (RTV) was calculated according to the results of tumor measurement. The calculation formula was RTV=Vt/V0, wherein V0 is the average tumor volume measured during administration of the groups (i.e. d0), and Vt is the average tumor volume during a certain measurement, the TRTV and CRTV were taken on the same day.
Statistical analysis included the mean and standard error (SEM) of tumor volume at each time point in each group. […] The comparison between two groups was analyzed by T-test, and the comparison between three or more groups was analyzed by one-way ANOVA.

CNC(=O)c1cccc(-c2ccc3c(N4CCOC[C@@H]4C)nc(N4CCOC5(CC5)C4)nc3n2)c1 [Embodiment 1]
IC50 [1]: 485 nM | IC50 [2]: 313 nM | IC50 [3]: 61 nM | AUCExtra ([4]; IV 2 mg/kg): 0.124% | AUMCExtra ([4]; IV 2 mg/kg): 1.27% | Tlast ([4]; IV 2 mg/kg): 12 h | AUCExtra ([4]; PO 10 mg/kg): 0.174% | AUMCExtra ([4]; PO 10 mg/kg): 1.83% | Tlast ([4]; PO 10 mg/kg): 24.0 h | AUC(0-inf) ([4]; mouse, IV 2 mg/kg): 7.42 µM·h | AUC(0-t) ([4]; mouse, IV 2 mg/kg): 7.41 µM·h | C0 ([4]; mouse, IV 2 mg/kg): 7.2 µM | clearance ([4]; mouse, IV 2 mg/kg): 9.45 mL/min/kg | half-life ([4]; mouse, IV 2 mg/kg): 1.65 h | MRT inf ([4]; mouse, IV 2 mg/kg): 1.38 h | MRT last ([4]; mouse, IV 2 mg/kg): 1.2 h | Vd ([4]; mouse, IV 2 mg/kg, read-out: Vdss): 0.793 L/kg | AUC(0-inf) ([4]; mouse, PO 10 mg/kg): 35 µM·h | AUC(0-t) ([4]; mouse, PO 10 mg/kg): 35 µM·h | Cmax ([4]; mouse, PO 10 mg/kg): 15.1 µM | Tmax ([4]; mouse, PO 10 mg/kg): 0.25 h | bioavailability ([4]; mouse, PO 10 mg/kg): 94.4% | half-life ([4]; mouse, PO 10 mg/kg): 3.33 h | MRT inf ([4]; mouse, PO 10 mg/kg): 2.74 h | MRT last ([4]; mouse, PO 10 mg/kg): 2.69 h | IC50 [5]: 155 nM | Kd [6]: 0.85 nM

CNC(=O)c1cccc(-c2ccc3c(N4CCOC[C@@H]4C)nc(N4CC5(CCC5)OC[C@@H]4C)nc3n2)c1 [Embodiment 30]
IC50 [1]: 442 nM | IC50 [2]: 158 nM | Kd [6]: 0.44 nM

C[C@H]1COCCN1c1nc(N2CCOC3(CCC3)C2)nc2nc(-c3cccc(C(N)=O)c3)ccc12 [Embodiment 44]
IC50 [3]: 89 nM | T/C [7]: 50.58% | TGI [7]: 65.23% | RTV (27th day) ([7]; 27th day): 2.11 ± 0.39 | Tumor volume (27th day) ([7]; 27th day, mean ± SEM): 298 ± 55 mm^3 | Tumor volume (day 0) ([7]; day 0, mean ± SEM): 143 ± 13 mm^3 | IC50 [5]: 171 nM | Kd [6]: 0.24 nM

Source: patent US11377444B2, “Pyridopyrimidine compounds acting as mTORC 1/2 dual inhibitors” (MEDSHINE DISCOVERY INC., priority 2017, dated 2022)
